Data set [1] concerns the target T1, PACE4 (Rattus norvegicus, UniProt Q63415).
T1 construct: made in house; host or cells: stably transfected hEK-293 cells (gift of R. E. Mains), conditioned medium
T1 sequence (Q63415 133-937): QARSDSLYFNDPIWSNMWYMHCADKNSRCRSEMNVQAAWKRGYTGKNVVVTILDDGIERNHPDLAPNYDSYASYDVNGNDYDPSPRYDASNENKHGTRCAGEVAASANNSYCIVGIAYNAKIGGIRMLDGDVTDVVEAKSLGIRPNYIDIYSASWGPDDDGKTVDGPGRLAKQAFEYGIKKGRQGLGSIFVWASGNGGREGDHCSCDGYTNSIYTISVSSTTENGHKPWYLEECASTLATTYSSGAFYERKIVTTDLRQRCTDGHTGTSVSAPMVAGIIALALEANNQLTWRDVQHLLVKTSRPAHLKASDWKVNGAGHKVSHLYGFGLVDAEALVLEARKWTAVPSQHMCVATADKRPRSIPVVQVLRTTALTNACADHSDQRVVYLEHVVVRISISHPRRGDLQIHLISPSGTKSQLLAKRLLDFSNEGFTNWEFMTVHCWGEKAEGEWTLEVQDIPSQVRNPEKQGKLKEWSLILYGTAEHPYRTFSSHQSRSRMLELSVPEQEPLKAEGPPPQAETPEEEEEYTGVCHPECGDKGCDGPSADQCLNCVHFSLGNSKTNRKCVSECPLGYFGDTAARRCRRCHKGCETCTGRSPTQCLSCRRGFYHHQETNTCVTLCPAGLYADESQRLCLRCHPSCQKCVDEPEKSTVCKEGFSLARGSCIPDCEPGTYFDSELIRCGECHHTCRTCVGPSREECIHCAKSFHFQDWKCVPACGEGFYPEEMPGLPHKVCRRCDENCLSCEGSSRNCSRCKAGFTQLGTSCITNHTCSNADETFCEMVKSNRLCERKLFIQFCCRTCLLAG
Nature of the data set: PACE4 enzyme assay, hydrolysis of pERTKR-MCA. Format: biochemical. On the procedure:
The proprotein convertase PACE4 was partially purified from an overnight-conditioned medium of stably transfected hEK-293 human embryonic kidney cells (a generous gift of R. E. Mains, Johns Hopkins University School of Medicine, Baltimore, Md.). Briefly, 100 mL of conditioned medium (OptiMEM containing 100 μg/mL aprotinin) was loaded onto an Econo-Pac Q (Bio-Rad) column at 4 mL/min, washed with 10 mL of buffer A, and then eluted with a linear gradient of buffer A containing 500 mM NaCl over 50 mL. The active fractions were then diluted 1:4 with buffer A prior to loading onto a Mono Q column (Pharmacia) at 1 mL/min. The PACE4 was eluted with a linear gradient of buffer A containing 500 mM NaCl over 10 mL. The resulting active fractions were then pooled and stored at −80° C. until use.
(§1) Enzyme Assays and Hexapeptide Library Screening. Enzyme assays for PC1 and PC2 were performed at pH 5.0 using pERTKR-MCA (Peptides International Inc., Louisville, Ky.) as described in E. Apletalina et al., J. Biol. Chem., vol. 273, pp. 26589-26595 (1998). The assay for furin was performed using the same substrate at pH 7.0 in 100 mM HEPES, 5 mM CaCl2, 0.1% Brij 35. All assays were performed at 37° C. in a 96 well fluorometer (Labsystems) at an excitation wavelength of 380 nm with emission monitored at a wavelength of 460 nm. The total volume was 50 μL. Unless otherwise stated, the final substrate concentration for all assays was 200 μM. When used in a particular experiment, the inhibitory peptides were pre-incubated with enzyme for 30 min at room temperature prior to addition of substrate. All assays were performed in duplicate or triplicate.

The subject of data set [2] is HEK293 cells. Nature of the data set: Growth of HEK293 cells monitored with the dye WST (cytotoxicity). The class given is cell-based, human. As for the experimental part: HEK293 cells were seeded into 96-well plates at the densities indicated. Their growth rates were monitored using the dye WST, which is cleaved by mitochondrial dehydrogenases to a […] dye only in viable cells.

For data set [3], the system named is HIV. Nature of the data set: Formation of syncytia by HIV in vitro in MT4 T cells. Format: cell-based. To be noted: micromolar concentrations, MT4 line of T cells, preliminary data (not shown). An excerpt:
The administration of polyarginines and other polybasic peptides in accordance with the present invention may be used to combat bacterial and viral infections, and to inhibit the growth of certain cancers. Preliminary data, for example, show activity against Pseudomonas exotoxin, and against HIV.

Data set [4] addresses T2, PC2 (Mus musculus, UniProt P21661).
T2 sequence (P21661 109-637): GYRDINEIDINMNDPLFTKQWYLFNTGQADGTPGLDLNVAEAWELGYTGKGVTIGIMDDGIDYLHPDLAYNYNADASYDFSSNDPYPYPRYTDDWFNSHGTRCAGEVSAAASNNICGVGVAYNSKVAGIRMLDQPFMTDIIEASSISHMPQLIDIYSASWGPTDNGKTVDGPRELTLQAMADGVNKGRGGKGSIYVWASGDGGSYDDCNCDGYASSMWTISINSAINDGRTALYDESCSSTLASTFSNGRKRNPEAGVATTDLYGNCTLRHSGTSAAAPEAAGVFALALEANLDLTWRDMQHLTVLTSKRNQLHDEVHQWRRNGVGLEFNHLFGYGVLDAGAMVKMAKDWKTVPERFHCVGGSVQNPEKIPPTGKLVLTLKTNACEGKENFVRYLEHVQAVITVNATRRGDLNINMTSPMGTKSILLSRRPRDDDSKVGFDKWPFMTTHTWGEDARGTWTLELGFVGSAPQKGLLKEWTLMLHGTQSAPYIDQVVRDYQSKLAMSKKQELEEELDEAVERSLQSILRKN
Nature of the data set: PC2 enzyme assay, hydrolysis of pERTKR-MCA at pH 5.0. The class given is biochemical. Further details: made in house. The following applies: data not shown. As for the experimental part:
The proprotein convertases PC1 and PC2 were prepared by ion exchange chromatography as described in G. Frenette et al., Biochim. Biophys. Acta., vol. 1334, pp. 109-115 (1997).
as §1

Each structure is given as a SMILES string. “Also recorded” adds a separate entry of the source. Where two headings read alike, the source gives them in different places.

Consider `N=C(N)NCCC[C@@H](NC(=O)[C@H](N)CCCN=C(N)N)C(=O)N[C@H](CCCNC(=N)N)C(=O)N[C@H](CCCNC(=N)N)C(=O)N[C@H](CCCNC(=N)N)C(=O)N[C@H](CCCN=C(N)N)C(=O)O` [Hexa-D-arginine], for which, in data set [1] (polyarginine peptides, mean ± S.D., three experiments, read-out: Ki PACE4), the Ki (commonly a measure of affinity in units of concentration, obtained from inhibition or displacement) is 580 ± 40 nM. Besides, the “mean absorbance at 450 nm (WST)” value in data set [2] (HEK293, 2 μM D6R, 51 hour) amounted to 0.69 ± 0.02; in data set [2] (HEK293, 2 μM D6R, 75 hour) it was 1.25 ± 0.11; in data set [2] (HEK293, 2 μM D6R, 99 hour) it was 1.42 ± 0.02; in data set [2] (HEK293, 4 μM D6R, 51 hour), 0.64 ± 0.03; in data set [2] (HEK293, 4 μM D6R, 75 hour) it was 1.28 ± 0.14; in data set [2] (HEK293, 4 μM D6R, 99 hour), 1.39 ± 0.06. For the same molecule, the “mean absorbance at 450 nm (WST)” value is recorded as 0.63 ± 0.04 in data set [2] (HEK293, 6 μM D6R, 51 hour); 1.13 ± 0.14 in data set [2] (HEK293, 6 μM D6R, 75 hour); 1.48 ± 0.04 in data set [2] (HEK293, 6 μM D6R, 99 hour); 0.67 ± 0.01 in data set [2] (HEK293, 8 μM D6R, 51 hour); 1.36 ± 0.08 in data set [2] (HEK293, 8 μM D6R, 75 hour); 1.40 ± 0.05 in data set [2] (HEK293, 8 μM D6R, 99 hour). The “mean absorbance at 450 nm (WST)” value worked out at 0.64 ± 0.03 in data set [2] (HEK293, 10 μM D6R, 51 hour); 1.28 ± 0.14 in data set [2] (HEK293, 10 μM D6R, 75 hour); 1.49 ± 0.08 in data set [2] (HEK293, 10 μM D6R, 99 hour); 0.64 ± 0.02 in data set [2] (HEK293, 30 μM D6R, 51 hour); 1.29 ± 0.08 in data set [2] (HEK293, 30 μM D6R, 75 hour); 1.45 ± 0.06 in data set [2] (HEK293, 30 μM D6R, 99 hour). For the same molecule, the “mean absorbance at 450 nm (WST)” value in data set [2] (HEK293, 60 μM D6R, 51 hour) is 0.66 ± 0.05; in data set [2] (HEK293, 60 μM D6R, 75 hour), 1.17 ± 0.08; in data set [2] (HEK293, 60 μM D6R, 99 hour) it was 1.48 ± 0.06; in data set [2] (HEK293, 100 μM D6R, 51 hour) it was 0.62 ± 0.03; in data set [2] (HEK293, 100 μM D6R, 75 hour), 1.19 ± 0.11; in data set [2] (HEK293, 100 μM D6R, 99 hour), 1.47 ± 0.09. For the same molecule, the “effect on growth of the cells” value in data set [2] (HEK293 cells, 2-100 μM) is given as “did not significantly affect the growth of the cells”. Also, the cytotoxicity result in data set [2] (HEK293 cells, up to 100 μM final concentration, preliminary data, listed as D6R) was “not toxic to cells; also recorded: did not appear to be cytotoxic”. Moreover, in data set [3], the “formation of syncytia by HIV” value was “inhibited the formation of syncytia”. Moreover, in data set [4], the “effect on PC2 activity” value was “no stimulatory or inhibitory effect”.
Turning to `N=C(N)NCCC[C@H](NC(=O)[C@H](CCCNC(=N)N)NC(=O)[C@H](CCCNC(=N)N)NC(=O)[C@H](CCCNC(=N)N)NC(=O)[C@H](CCCNC(=N)N)NC(=O)[C@@H](N)CCCNC(=N)N)C(=O)O` [Hexa-L-arginine], in data set [1], the affinity, expressed as Ki, was 520 ± 45 nM. Moreover, the “effect on PC2 activity” value in data set [4] was “Stimulates PC2 Activity”.
`N=C(N)NCCC[C@H](NC(=O)[C@H](CCCNC(=N)N)NC(=O)[C@H](CCCNC(=N)N)NC(=O)[C@H](CCCNC(=N)N)NC(=O)[C@H](CCCNC(=N)N)NC(=O)[C@H](CCCNC(=N)N)NC(=O)[C@H](CCCNC(=N)N)NC(=O)[C@H](CCCNC(=N)N)NC(=O)[C@@H](N)CCCNC(=N)N)C(=O)O` [Nona-L-arginine] registered a Ki in data set [1] of 110 ± 13 nM.

Source of the values: patent US7569547B2, “Inhibiting furin with polybasic peptides” (Board of Supervisors of Louisiana State University and …, priority 2001, dated 2009).
